Test results taken from US20100272706A1, “ANTIVIRALS” (priority 2007, published 2010).
Like-named read-outs stand apart in the source and are kept apart here.

Assays:
Assay type in all cases: cell-based
[1] = system: vaccinia virus mature virions (EGFP-MV)
[2] = system: MV-induced blebbing of HeLa cells; details: microscopy
[3] = system: vaccinia virus mature virions (MV entry)
[4] = system: vaccinia virus mature virions (mYFP-MV)
[5] = system: vaccinia virus mature virions (mYFP-MV); remark: listed apart in the source
[6] = system: vaccinia virus mature virions

Cc1ccc2c(c1)C(=O)C1(O)CCN(c3ccccc3)C1=N2 (centres unmarked) [Blebbistatin]
inhibition of viral infection [1]: 62% | MV-induced bleb formation [2]: prevented formation of the blebs | MV-induced bleb formation ([2]; listed as blebbistatin): inhibited bleb-formation

O=C(Nc1cccc(Nc2cc(Nc3cccc(C(F)(F)F)c3)ncn2)c1)C1CC1 [EGFR inhibitor 324674]
MV entry [3]: effectively blocks MV entry

CCN(c1nc(N)c(C(=O)N=C(N)N)nc1Cl)C(C)C [EIPA, 5-N-ethyl-N-isopropyl-amiloride]
inhibition of viral infection [1]: 90% | MV-induced bleb formation [2]: inhibited bleb-formation | internalization of MV into FITC-dextran positive vacuoles [4]: prevented internalization

O=c1c(-c2ccc(O)cc2)coc2cc(O)cc(O)c12 [genistein]
inhibition of viral infection [1]: up to 82%

COC[C@H]1OC(=O)c2coc3c2[C@@]1(C)C1=C(C3=O)[C@@H]2CCC(=O)[C@@]2(C)C[C@H]1OC(C)=O [wortmannin]
inhibition of viral infection [1]: up to 63%

ANX5
infectivity [1]: no effect | inhibition of infection by masking of viral PS [1]: 95% | MV binding to cells [5]: without affecting MV binding | viral binding [5]: no effect

phosphatidylserine [PS]
fraction of original infectivity and plaque formation rescued [6]: 90%
